Biological target: T1, human topoisomerase IIα (Homo sapiens, UniProt P11388)
T1 construct: gene TOP2A; recombinant wild-type, expressed in Saccharomyces cerevisiae and purified
Assay: DNA cleavage assay, pBR322, agarose gel
Type: biochemical
Conditions: single-stranded and double-stranded DNA break induction; 300 nM enzyme, 25 mM MgCl2, 500 mM KCl, pH 7.9, 37 °C, 10 min

T1 sequence (P11388 whole entry): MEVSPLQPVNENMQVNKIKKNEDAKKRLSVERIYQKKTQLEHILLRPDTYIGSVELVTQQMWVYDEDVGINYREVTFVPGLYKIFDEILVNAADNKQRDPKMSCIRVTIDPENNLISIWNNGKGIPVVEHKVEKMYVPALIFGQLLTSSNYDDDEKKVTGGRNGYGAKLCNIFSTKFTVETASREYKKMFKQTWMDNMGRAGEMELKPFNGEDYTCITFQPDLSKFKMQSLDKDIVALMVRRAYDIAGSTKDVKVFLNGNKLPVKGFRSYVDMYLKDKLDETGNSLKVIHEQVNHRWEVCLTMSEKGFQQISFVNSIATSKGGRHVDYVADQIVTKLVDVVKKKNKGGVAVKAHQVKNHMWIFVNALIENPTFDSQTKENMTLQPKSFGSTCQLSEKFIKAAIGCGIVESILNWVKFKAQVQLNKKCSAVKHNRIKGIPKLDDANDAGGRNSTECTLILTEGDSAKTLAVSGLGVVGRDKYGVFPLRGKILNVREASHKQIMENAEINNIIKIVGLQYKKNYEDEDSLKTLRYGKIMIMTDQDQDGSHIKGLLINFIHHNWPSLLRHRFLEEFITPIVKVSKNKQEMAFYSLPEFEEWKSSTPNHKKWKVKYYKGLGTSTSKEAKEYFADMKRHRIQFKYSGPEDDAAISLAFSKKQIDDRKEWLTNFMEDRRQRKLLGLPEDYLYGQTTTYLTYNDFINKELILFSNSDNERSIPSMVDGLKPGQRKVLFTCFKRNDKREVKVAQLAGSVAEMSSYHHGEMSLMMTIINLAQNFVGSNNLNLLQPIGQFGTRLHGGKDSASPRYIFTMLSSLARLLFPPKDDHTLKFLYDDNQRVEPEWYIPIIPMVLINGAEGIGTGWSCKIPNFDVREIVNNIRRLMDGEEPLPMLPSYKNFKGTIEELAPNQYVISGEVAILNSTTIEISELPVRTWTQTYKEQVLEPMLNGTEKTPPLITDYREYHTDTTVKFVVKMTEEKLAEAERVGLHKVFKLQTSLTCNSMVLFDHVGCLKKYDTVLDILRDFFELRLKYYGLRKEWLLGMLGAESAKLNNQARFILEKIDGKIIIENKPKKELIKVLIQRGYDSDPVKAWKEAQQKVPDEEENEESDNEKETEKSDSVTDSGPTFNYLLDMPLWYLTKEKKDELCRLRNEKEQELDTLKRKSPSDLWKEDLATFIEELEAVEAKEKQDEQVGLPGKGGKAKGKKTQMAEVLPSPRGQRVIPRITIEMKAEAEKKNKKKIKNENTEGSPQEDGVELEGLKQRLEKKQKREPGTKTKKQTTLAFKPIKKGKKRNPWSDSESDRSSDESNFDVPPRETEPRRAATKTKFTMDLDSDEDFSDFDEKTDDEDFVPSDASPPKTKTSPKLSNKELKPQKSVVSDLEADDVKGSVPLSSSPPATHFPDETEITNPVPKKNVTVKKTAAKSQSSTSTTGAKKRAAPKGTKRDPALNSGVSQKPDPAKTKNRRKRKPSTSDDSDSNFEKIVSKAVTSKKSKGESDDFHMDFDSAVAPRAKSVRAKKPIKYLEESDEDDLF

With `COc1ccc2nccc(CC[C@H]3OC[C@H](NC(=O)c4ccc5c(c4)NC(=O)CO5)CO3)c2c1` [OSUAB-185] the CC50 was “reasonable activity against the human type II enzyme, with CC50 values in the low µM”.

— paper PMC10419083, “Actions of a Novel Bacterial Topoisomerase Inhibitor against Neisseria gonorrhoeae Gyrase and Topoisomerase IV: Enhancement of Double-Stranded DNA Breaks” (International Journal of Molecular Sciences, 2023)
